Converted amounts (≈) assume the structure as drawn. Values belong to the molecule of their own block, whether it stands above or below them.
Legend:
[1] = Metabolic stability in human microsomes assessed as intrinsic clearance preincubated for 10 mins followed by NADPH addition and measured after 5 to 60 mins by LC-MS/MS analysis; format: ADME, Microsome; conditions: time 15-70 min
[2] = Metabolic stability in human liver microsomes assessed as compound remaining preincubated for 10 mins followed by NADPH addition and measured at 60 mins by LC-MS/MS analysis; format: ADME, Microsome; conditions: time 70 min, read-out: Stability
[3] = Metabolic stability in human liver microsomes assessed as half life preincubated for 10 mins followed by NADPH addition and measured after 5 to 60 mins by LC-MS/MS analysis; format: ADME, Microsome; conditions: time 15-70 min
Aspergillus fumigatus = experiment: Antifungal activity against Aspergillus fumigatus CGMCC3.7795 assessed as fungal growth inhibition by NCCLS protocol based method; format: functional
Pichia kudriavzevii = experiment: Antifungal activity against Candida krusei GIM2.1 assessed as fungal growth inhibition by NCCLS protocol based method; format: functional
[4] = Half life in Sprague-Dawley rat at 10 mg/kg, po measured after 24 hrs by LC-MS/MS analysis; format: ADME, organism-based; conditions: in vivo
Candida albicans [5] = experiment: Antifungal activity against Candida albicans CPCC400616 assessed as fungal growth inhibition by NCCLS protocol based method; format: functional
Candida albicans [6] = experiment: Fungicidal activity against Candida albicans CPCC400616 assessed as reduction in colony forming units at 8 times MIC incubated for 24 hrs by time kill assay; format: functional
[7] = Stability in human plasma assessed as compound remaining measured at 60 mins by LC/MS-MS analysis; format: ADME, cell-free; conditions: read-out: Stability
[8] = Stability in human plasma assessed as half life measured at 120 mins by LC/MS-MS analysis; format: ADME, cell-free
Candida albicans [9] = experiment: Antifungal activity against FLC-resistant Candida albicans 311 assessed as fungal growth inhibition by NCCLS protocol based method; format: functional
Candida albicans [10] = experiment: Antifungal activity against FLC-resistant Candida albicans 901 assessed as fungal growth inhibition by NCCLS protocol based method; format: functional
Candida albicans [11] = experiment: Antibiofilm activity against FLC-resistant Candida albicans CPCC400616 assessed as assessed as inhibition of biofilm formation measured at 3 hrs by XTT reduction assay; format: functional
MCF7 = experiment: Cytotoxicity against human MCF7 cells assessed as inhibition of cell growth incubated for 4 hrs by MTT assay; format: functional, cell-based; conditions: MCF7, 4 h
Cryptococcus neoformans = experiment: Antifungal activity against Cryptococcus neoformans CGMCC 2.3161 assessed as fungal growth inhibition by NCCLS protocol based method; format: functional
Candida albicans [12] = experiment: Antifungal activity against FLC-resistant Candida albicans CaR assessed as fungal growth inhibition by NCCLS protocol based method; format: functional
Candida albicans [13] = experiment: Antibiofilm activity against FLC-resistant Candida albicans CPCC400616 assessed as assessed as inhibition of biofilm formation measured at 24 hrs by XTT reduction assay; format: functional
Candida albicans [14] = experiment: Antifungal activity against FLC-resistant Candida albicans 632 assessed as fungal growth inhibition by NCCLS protocol based method; format: functional
Candida albicans [15] = experiment: Fungicidal activity against Candida albicans CPCC400616 assessed as minimum inhibitory concentration incubated for 48 hrs; format: functional
Candida albicans [16] = experiment: Antifungal activity against Candida albicans ATCC SC5314 assessed as fungal growth inhibition by NCCLS protocol based method; format: functional
Candida albicans [17] = experiment: Antifungal activity against FLC-resistant Candida albicans 103 assessed as fungal growth inhibition by NCCLS protocol based method; format: functional
[18] = Stability in human plasma assessed as compound remaining measured at 120 mins by LC/MS-MS analysis; format: ADME, cell-free; conditions: read-out: Stability
Candida albicans [19] = experiment: Antifungal activity against FLC-resistant Candida albicans 100 assessed as fungal growth inhibition by NCCLS protocol based method; format: functional
Candida albicans [20] = experiment: Fungicidal activity against Candida albicans CPCC400616 assessed as minimum fungicidal concentration incubated for 48 hrs; format: functional
A549 = experiment: Cytotoxicity against human A549 cells assessed as inhibition of cell growth incubated for 4 hrs by MTT assay; format: functional, cell-based; conditions: A549, 4 h
Candida albicans [21] = experiment: Fungicidal activity against Candida albicans CPCC400616 assessed as reduction in colony forming units at 2 to 8 times MIC incubated for 24 hrs by time kill assay; format: functional, organism-based; conditions: DDE = dose-dependent effect
HepG2 = experiment: Cytotoxicity against human HepG2 cells assessed as inhibition of cell growth incubated for 4 hrs by MTT assay; format: functional, cell-based; conditions: HepG2, 4 h
Candida albicans [22] = experiment: […] for fungicidal activity against Candida albicans CPCC400616; format: functional
[23] = Cytotoxicity against human HEK293T cells assessed as inhibition of cell growth incubated for 4 hrs by MTT assay; format: toxicity, cell-based, HEK-293T
Candida tropicalis = experiment: Antifungal activity against Candida tropicalis CGMCC 2.3739 assessed as fungal growth inhibition by NCCLS protocol based method; format: functional
[24] = Half life in Sprague-Dawley rat at 3 mg/kg, iv measured after 24 hrs by LC-MS/MS analysis; format: ADME, organism-based; conditions: in vivo
[25] = AUClast in Sprague-Dawley rat at 3 mg/kg, iv measured after 24 hrs by LC-MS/MS analysis; format: ADME, organism-based; set-up: time 24 hrs, dose 3 mg/kg, route iv; conditions: in vivo
Nakaseomyces glabratus = experiment: Antifungal activity against Candida glabrata clinical isolate assessed as fungal growth inhibition by NCCLS protocol based method; format: functional
Candida albicans [26] = experiment: Antibiofilm activity against FLC-resistant Candida albicans CPCC400616 assessed as assessed as inhibition of biofilm formation measured at 6 hrs by XTT reduction assay; format: functional
Candida albicans [27] = experiment: Antibiofilm activity against FLC-resistant Candida albicans CPCC400616 assessed as assessed as inhibition of biofilm formation measured at 18 hrs by XTT reduction assay; format: functional
Candida parapsilosis = experiment: Antifungal activity against Candida parapsilosis GIM2.190 assessed as fungal growth inhibition by NCCLS protocol based method; format: functional; conditions: Lodderomyces parapsilosis
Candida albicans [28] = experiment: Antifungal activity against FLC-resistant Candida albicans 904 assessed as fungal growth inhibition by NCCLS protocol based method; format: functional
[29] = Oral bioavailability in Sprague-Dawley rat at 10 mg/kg measured measured after 24 hrs by LC-MS/MS analysis; format: ADME, organism-based; conditions: in vivo
[30] = AUClast in Sprague-Dawley rat at 10 mg/kg, po measured after 24 hrs by LC-MS/MS analysis; format: ADME, organism-based; set-up: dose 10 mg/kg, time 24 hrs, route po; conditions: in vivo

CLint [1]: 74.6 µL/min/mg
remaining at 1 h [2]: 9.3%
half-life [3]: 0.31 h
SMILES: Cc1ccc(C(=O)C(Cn2ccnc2)NC(=O)c2ccc(-c3ccc(Cl)cc3)s2)cc1 (stereo unspecified)

SMILES: Fc1ccc(C2(Cn3ccnc3)COC(c3ccc(-c4ccccc4F)s3)=N2)cc1 (stereo unspecified)
MIC (Aspergillus fumigatus): 0.25 mg/L (≈ 0.593 µM)
MIC (Pichia kudriavzevii): 0.25 mg/L (≈ 0.593 µM)
half-life [4]: 4.44 h
MIC (Candida albicans [5]): 0.03 mg/L (≈ 0.0712 µM)
Activity (Candida albicans [6]): 2 log10CFU/ml
remaining at 1 h [7]: 98.7%
half-life [8]: > 4.8 h
CLint [1]: 19.7 µL/min/mg
MIC (Candida albicans [9]): 0.125 mg/L (≈ 0.297 µM)
MIC (Candida albicans [10]): 0.125 mg/L (≈ 0.297 µM)
MIC50 (Candida albicans [11]): 0.125 mg/L (≈ 0.297 µM)
remaining at 1 h [2]: 49.7%
IC50 (MCF7): > 50 µM
MIC (Cryptococcus neoformans): 0.125 mg/L (≈ 0.297 µM)
half-life [3]: 1.18 h
MIC (Candida albicans [12]): 0.25 mg/L (≈ 0.593 µM)
MIC50 (Candida albicans [13]): 8 mg/L (≈ 19 µM)
MIC (Candida albicans [14]): 0.5 mg/L (≈ 1.19 µM)
MIC (Candida albicans [15]): 0.03 mg/L (≈ 0.0712 µM)
MIC (Candida albicans [16]): 0.03 mg/L (≈ 0.0712 µM)
MIC (Candida albicans [17]): 0.25 mg/L (≈ 0.593 µM)
remaining at 2 h [18]: 101%
MIC (Candida albicans [19]): 0.5 mg/L (≈ 1.19 µM)
MFC (Candida albicans [20]): 0.125 mg/L (≈ 0.297 µM)
IC50 (A549): > 50 µM
Activity (Candida albicans [21]): Dde
IC50 (HepG2): 17 µM
Ratio (Candida albicans [22]): 4
IC50 at 4 h [23]: 14.2 µM
MIC (Candida tropicalis): 0.03 mg/L (≈ 0.0712 µM)
half-life [24]: 1.02 h
AUC(0-t) at 24 h [25]: 0.925 µg·h/mL
MIC (Nakaseomyces glabratus): 0.06 mg/L (≈ 0.142 µM)
MIC50 (Candida albicans [26]): 1 mg/L (≈ 2.37 µM)
MIC50 (Candida albicans [27]): 2 mg/L (≈ 4.75 µM)
MIC (Candida parapsilosis): 0.25 mg/L (≈ 0.593 µM)
MIC (Candida albicans [28]): 1 mg/L (≈ 2.37 µM)
bioavailability [29]: 15.1%
AUC(0-t) at 24 h [30]: 0.466 µg·h/mL

SMILES: c1ccc(-c2ccc(C3=NC(Cn4ccnc4)(c4ccccc4)CO3)s2)cc1 (stereo unspecified)
MIC (Aspergillus fumigatus): 8 mg/L (≈ 20.8 µM)
MIC (Pichia kudriavzevii): 16 mg/L (≈ 41.5 µM)
MIC (Candida albicans [5]): 1 mg/L (≈ 2.59 µM)
remaining at 1 h [7]: 93.1%
half-life [8]: > 4.8 h
CLint [1]: 27.6 µL/min/mg
remaining at 1 h [2]: 41.3%
MIC (Cryptococcus neoformans): 2 mg/L (≈ 5.19 µM)
half-life [3]: 0.837 h
MIC (Candida albicans [16]): 1 mg/L (≈ 2.59 µM)
remaining at 2 h [18]: 89.5%
MIC (Candida tropicalis): 4 mg/L (≈ 10.4 µM)
MIC (Nakaseomyces glabratus): 16 mg/L (≈ 41.5 µM)
MIC (Candida parapsilosis): 16 mg/L (≈ 41.5 µM)
